The values that follow are results of earlier work, collected in patent publication US10519176B2, “Crystalline forms” (GRUNENTHAL GMBH, priority 2010, dated 2019).

The conditions of series [1]: in vivo.
For series [2] the following is noted: according to FDA SBA.
The conditions of series [3]: according to FDA SBA. This is another data set of the same source.

Turning to `O=P(O)(O)C(O)(Cn1ccnc1)P(=O)(O)O` [Zoledronic acid, (1-hydroxy-2-imidazol-1-yl-1-phosphono-ethyl)phosphonic acid], in series [1], the “gastric and intestinal irritations” value was “severe gastric and intestinal irritations”. In series [2], the oral bioavailability result is “approximately 1%”. The “solubility in 0.1 N HCl solution” value (0.1 N HCl solution) was “sparingly soluble”. Further, the “solubility in 0.1 N NaOH” value (0.1 N NaOH) was “freely soluble”. In addition, the “solubility in various organic solvents” value (various organic solvents) is listed as “practically insoluble”. Besides, the solubility in water result (water) is on record as “sparingly soluble”. The “permeability in the GI tract” value in series [3] is “poor permeability”.
